Holding throughout (assay type): functional
The species entered for experiment [1] is Oryctolagus cuniculus. The experiment can be described thus: Effective concentration required to produce 50% of the maximum platelet aggregation using rabbit platelet-rich plasma was determined.
The species entered for experiment [2] is Oryctolagus cuniculus. Nature of the experiment: Maximum platelet aggregation units at 5*10e-5 molar concentration was determined.
For the next experiment, the species on record is Rattus norvegicus. The experiment can be described thus: Hypotensive activity of compound was determined in hypertensive rats, as dose required to decrease the mean arterial blood pressure 50 mmHg was determined.
Experiment [3] is described as follows: Ratio of MABP to that of platelet EC50 of the compound.
For experiment [4], the species on record is Oryctolagus cuniculus. The experiment can be described thus: Maximum platelet aggregation units at 5*10e-6 molar concentration was determined.
The species named for experiment [5] is Oryctolagus cuniculus. The experiment can be described thus: Maximum platelet aggregation units at 1.3*10e-5 molar concentration was determined.
Experiment [6] is filed under the species Oryctolagus cuniculus. Nature of the experiment: Maximum platelet aggregation units at 1.9*10e-4 molar concentration was determined.
Experiment [7] is filed under the species Oryctolagus cuniculus. The experiment can be described thus: Maximum platelet aggregation units at 5*10e-4 molar concentration was determined.

For orientation: EC50 means the concentration needed to bring the measured effect to its halfway point. Low values mean greater potency, high ones weaker potency. On to `CCCCCCCCCCCCCCCCOC(C)(C)C(COP(=O)([O-])OCC[N+](C)(C)C)OC(C)=O` (centres undefined), for which, in the experiment listed under Oryctolagus cuniculus [1], the EC50 stood at 11 µM. Moreover, in the experiment filed under Oryctolagus cuniculus [2], the Max aggregation response is recorded as 64. The same compound showed a Dose in the experiment filed under Rattus norvegicus of 0.8757 mg/kg. Also, in experiment [3], the Ratio is given as 0.8.

In turn, `CCCCCCCCCCCCCCCCOCC(CCOP(=O)([O-])OCC[N+](C)(C)C)OC(C)=O` (centres undefined) yielded an EC50 in the experiment filed under Oryctolagus cuniculus [1] of 1.4 µM. The same compound showed a Dose in the experiment listed under Rattus norvegicus of 0.0475 mg/kg. This compound displayed a Max aggregation response in the experiment filed under Oryctolagus cuniculus [4] of 65. In addition, the Ratio in experiment [3] amounted to 0.34.

`CCCCCCCCCCCCCCCCOCC(COP(=O)([O-])OCC[N+](C)(C)C)OC(C)=O` (centres undefined) [PLATELET ACTIVATING FACTOR]: the Max aggregation response in the experiment filed under Oryctolagus cuniculus [5] came out at 75. The compound further gave an EC50 in the experiment filed under Oryctolagus cuniculus [1] of 0.0194 µM. In the experiment listed under Rattus norvegicus, this compound had a Dose of 0.00125 mg/kg. Besides, the Ratio in experiment [3] is recorded as 0.65.

Take `CCCCCCCCCCCCCCCCOCCC(COP(=O)([O-])OCC[N+](C)(C)C)OC(C)=O` (centres undefined): it took 1.5 µM to reach a half-maximal effect in the experiment listed under Oryctolagus cuniculus [1] (EC50). In addition, in the experiment filed under Rattus norvegicus, the Dose came out at 0.0243 mg/kg. In the experiment listed under Oryctolagus cuniculus [6], the Max aggregation response turned out to be 50. In addition, the Ratio in experiment [3] came out at 0.16.

In the experiment listed under Oryctolagus cuniculus [1], `CCCCCCCCCCCCCCCCOCC(OC(C)=O)C(C)OP(=O)([O-])OCC[N+](C)(C)C` (centres undefined) registered an EC50 of 3.2 µM. The compound also had a Dose in the experiment filed under Rattus norvegicus of 0.0634 mg/kg. The compound further returned a Max aggregation response in the experiment listed under Oryctolagus cuniculus [6] of 70. The Ratio in experiment [3] is given as 0.2.

Consider `CCCCCCCCCCCCCCCCOC(C)C(COP(=O)([O-])OCC[N+](C)(C)C)OC(C)=O` (centres undefined), for which the response in the experiment filed under Oryctolagus cuniculus [1] was half-maximal at 0.51 µM (EC50). This compound also displayed a Dose in the experiment filed under Rattus norvegicus of 0.00712 mg/kg. The same compound returned a Max aggregation response in the experiment listed under Oryctolagus cuniculus [7] of 65. Also, the Ratio in experiment [3] turned out to be 0.14.

(Values after ChEMBL document CHEMBL1123119, “Analogues of platelet activating factor (PAF). 2. Some modifications of the glycerine backbone” (J Med Chem, 1985).)
